Consider 2 substances from patent US6486128B1, “Method of using emamectin to treat fish parasites” (Schering-Plough Veterinary Corporation, priority 1999, dated 2002).

One data set has as its system parasites. As to the kind of experiment: Sustained efficacy after emamectin treatment. The data set is classed as in vivo.
Data set [1] in a line: Daily observation of fish for behavior, adverse drug reactions and mortalities (three studies). The data set is classed as in vivo, Atlantic salmon, Salmo salar L. The settings on record: at the dosage levels and dosage schedule of the invention. On the procedure: Fish were held in replicate groups in plastic fiber tanks, each with a volume of 0.54 m^3. Each tank was supplied with natural sea water at ambient temperature (7-14° C.) and salinity (30-35 ppt), at flow rates of approximately 18 l. min^−1. The tanks were fitted with mesh screens over the water outlet to retain uneaten fish pellets. Fish were observed daily for behavior and adverse drug reactions. Fish mortalities and the occurrence of gross sea lice damage were also recorded.

For data set [2] the following is noted: orally administered; cited from earlier work.
The next data set deals with sea lice. The settings on record: commonly adopted dose rate of 25 μg kg^−1 biomass twice weekly; cited from earlier work.

For “4″-deoxy-4″ epimethylaminoavermectin B1 [emamectin]”, in the data set with parasites, the “sustained efficacy after treatment” value was in the range of 8 to 10 weeks. Further, the “toxicity to fish populations” value in data set [1] is recorded as “not toxic”.

On to 22,23-dihydroavermectin B1 [ivermectin], for which, in data set [2], the “levels found to be toxic” value was “greater than 25 μg kg^−1 biomass twice weekly”. Besides, the “control of sea lice” value with sea lice is listed as “some control”.
